Experimental findings from patent publication US20120079993A1, “B[…]” (UNIVERSITY OF DURHAM, priority 2010, published 2012) are described below.

For one data set, the system named is mouse or rat. Nature of the data set: Elevated platform at 75 cm height: falling from the platform and locomotion. The following applies: 0.2 mg/kg i.p.; platform at 75 cm height. It is filed as in vivo. From the text:
Most mice and rats do jump onto the ground when the platform is raised by 50 cm but not when it is raised by about 75 cm. […] If a manipulation does induce jumping onto or falling on the ground, the experiment cannot be continued with the group of animals displaying this behaviour. Lower the doses if using drugs. One can prevent animals from sliding from the platform by using a ledge (not higher than 0.5 cm height) on each side adjacent to the void space. […] At 100 cm height, the test is more anxiogenic (3) and it is likely to cancel its sensitivity to experimental manipulations. Because of animal welfare regulations, it is advised that a soft carpet (polyethylene foam map about 3-5 cm thick) is laid on the ground beneath the slopes. It is preferable that it is grey or dark unicolor and covers all the visible areas of the floor within the curtain perimeter that surrounds the test apparatus.

The subject of another data set is Balb/c mice. Nature of the data set: Open space anxiety test: elevated platform with steep slopes. Particulars: amphetamine 5 and 10 mg/kg vs diazepam 0.5, 1 and 3 mg/kg.

On to `C[C@]12N[C@H](Cc3ccccc31)c1ccccc12` [MK-801], for which, in the data set on mouse or rat, the effect on locomotion entry was “induced uncoordinated, unsteady locomotion” and the “falling from the platform” value was “falling from the platform”.
In the case of `CC(N)Cc1ccccc1` (stereo not shown) [amphetamine], the “number of crossings on the platform (motor activity) in amphetamine treated mice compared to diazepam treated mice” value in the data set on Balb/c mice was “double”; in the data set on Balb/c mice (listed as Amphetamine), “at least two-fold”.
